These results are taken from ChEMBL document CHEMBL1159368, “Phenolic compounds from Nymphaea odorata” (J Nat Prod, 2003).

Values after ≈ are worked out from the molar mass of the structure shown.

A short description of the assay: Inhibition of Saccharomyces cerevisiae FAS.
As a reminder, the IC50 is the concentration that gives 50% inhibition. A higher IC50 goes with a need for much substance. Regarding `O=c1c(O[C@@H]2O[C@H](CO)[C@H](O)[C@H](O)[C@H]2O)c(-c2cc(O)c(O)c(O)c2)oc2cc(O)cc(O)c12`, the IC50 was determined as 25 µg/mL (≈ 52 µM).
In turn, `C[C@@H]1O[C@@H](Oc2c(-c3ccc(O)cc3)oc3cc(O)cc(O)c3c2=O)[C@H](O)[C@H](O)[C@H]1O` [AFZELIN] had an IC50 of 45 µg/mL (≈ 104 µM).
Molecule `C[C@@H]1O[C@@H](Oc2c(-c3ccc(O)c(O)c3)oc3cc(O)cc(O)c3c2=O)[C@H](O)[C@H](O)[C@H]1O` [QUERCITRIN] yielded a concentration for half-maximal inhibition (IC50) of 50 µg/mL (≈ 112 µM).
Consider `C/C=C/C/C=C/CCC(=O)[C@H]1O[C@H]1C(N)=O` [CERULENIN], for which the IC50 stood at 0.19 µg/mL (≈ 0.851 µM).
